Assay [1] deals with T1, Protein deacetylase HDAC6 (Homo sapiens) (UniProt Q9UBN7).
T1 sequence (whole entry): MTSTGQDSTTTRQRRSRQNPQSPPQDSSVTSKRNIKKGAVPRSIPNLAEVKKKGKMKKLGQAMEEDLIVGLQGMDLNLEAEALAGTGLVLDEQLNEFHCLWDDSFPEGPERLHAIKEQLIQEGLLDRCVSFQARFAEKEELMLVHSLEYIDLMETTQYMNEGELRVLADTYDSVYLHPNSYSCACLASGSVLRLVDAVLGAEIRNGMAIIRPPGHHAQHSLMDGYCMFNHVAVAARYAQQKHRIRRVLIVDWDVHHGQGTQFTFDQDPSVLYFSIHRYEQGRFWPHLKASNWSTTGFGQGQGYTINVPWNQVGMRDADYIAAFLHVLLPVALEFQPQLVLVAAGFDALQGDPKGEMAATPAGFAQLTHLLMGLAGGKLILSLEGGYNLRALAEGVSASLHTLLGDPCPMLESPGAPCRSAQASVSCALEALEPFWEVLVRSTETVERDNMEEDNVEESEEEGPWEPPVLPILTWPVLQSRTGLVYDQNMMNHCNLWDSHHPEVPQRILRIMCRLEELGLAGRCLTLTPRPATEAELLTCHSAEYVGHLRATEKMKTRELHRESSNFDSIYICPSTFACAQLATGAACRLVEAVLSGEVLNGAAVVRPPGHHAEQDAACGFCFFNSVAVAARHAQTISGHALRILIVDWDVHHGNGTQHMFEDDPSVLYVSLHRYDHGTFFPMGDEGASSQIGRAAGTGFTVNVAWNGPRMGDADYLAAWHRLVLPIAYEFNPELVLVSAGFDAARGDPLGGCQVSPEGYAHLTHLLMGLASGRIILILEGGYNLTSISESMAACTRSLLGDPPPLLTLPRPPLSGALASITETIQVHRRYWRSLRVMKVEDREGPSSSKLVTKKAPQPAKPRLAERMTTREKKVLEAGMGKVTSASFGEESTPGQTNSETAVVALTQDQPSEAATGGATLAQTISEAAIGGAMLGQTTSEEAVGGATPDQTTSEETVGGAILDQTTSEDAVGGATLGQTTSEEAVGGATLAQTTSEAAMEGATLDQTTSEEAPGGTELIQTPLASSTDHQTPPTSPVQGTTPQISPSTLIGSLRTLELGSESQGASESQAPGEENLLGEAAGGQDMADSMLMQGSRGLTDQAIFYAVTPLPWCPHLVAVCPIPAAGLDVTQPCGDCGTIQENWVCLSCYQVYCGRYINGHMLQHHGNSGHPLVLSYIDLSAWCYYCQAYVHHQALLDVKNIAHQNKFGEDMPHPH
The assay can be described thus: Inhibition of HDAC6 (unknown origin) using p53 residues 379 to 382 [RHKK(Ac)] as fluorogenic substrate assessed as residual activity at 1.37 x 10^-8M (reference value: 101.06%). Particulars: dose 1.37 10^-8M.

For assay [2], the target named is T1, Protein deacetylase HDAC6 (Homo sapiens). The assay can be described thus: Inhibition of HDAC6 (unknown origin) using p53 residues 379 to 382 [RHKK(Ac)] as fluorogenic substrate assessed as residual activity at 1.23 x 10^-7M (reference value: 101.06%). The note with it: dose 1.23 10^-7M.
Assay [3] deals with Histone deacetylase 5 (Homo sapiens) (UniProt Q9UQL6). The experiment in a line: Inhibition of HDAC5 (unknown origin) assessed as residual activity at 1.52 x 10^-9M (reference value: 100%). The note with it: dose 1.52 10^-9M.
Assay [4] shares this target. The assay can be described thus: Inhibition of HDAC5 (unknown origin) assessed as residual activity at 1 x 10^-5M (reference value: 100%). Particulars: dose 1.0 10^-5M.
The target in assay [5] is T2, Polyamine deacetylase HDAC10 (Homo sapiens) (UniProt Q969S8).
T2 sequence (whole entry): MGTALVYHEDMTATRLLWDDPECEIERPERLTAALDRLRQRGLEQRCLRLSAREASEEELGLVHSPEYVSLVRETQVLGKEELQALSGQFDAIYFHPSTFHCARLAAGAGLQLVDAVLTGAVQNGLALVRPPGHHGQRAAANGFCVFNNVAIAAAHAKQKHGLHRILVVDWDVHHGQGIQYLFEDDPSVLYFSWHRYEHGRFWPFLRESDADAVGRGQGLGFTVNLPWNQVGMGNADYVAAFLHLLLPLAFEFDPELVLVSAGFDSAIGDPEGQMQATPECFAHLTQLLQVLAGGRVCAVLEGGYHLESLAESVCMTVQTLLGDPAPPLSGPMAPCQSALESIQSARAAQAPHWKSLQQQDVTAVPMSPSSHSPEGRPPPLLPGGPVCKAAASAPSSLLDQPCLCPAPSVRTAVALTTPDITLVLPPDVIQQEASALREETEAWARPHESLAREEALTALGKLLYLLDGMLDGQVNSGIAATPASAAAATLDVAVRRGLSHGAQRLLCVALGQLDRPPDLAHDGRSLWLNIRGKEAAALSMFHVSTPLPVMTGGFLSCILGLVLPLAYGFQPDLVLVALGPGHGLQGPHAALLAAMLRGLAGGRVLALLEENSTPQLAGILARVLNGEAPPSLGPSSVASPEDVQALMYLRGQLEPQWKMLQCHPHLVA
The assay can be described thus: Inhibition of HDAC10 (unknown origin) assessed as residual activity at 1.37 x 10^-8M (reference value: 101.54%). Particulars: dose 1.37 10^-8M.

A further assay deals with Histone deacetylase 2 (Homo sapiens, UniProt Q92769). The experiment in a line: Inhibition of HDAC2 (unknown origin) assessed as residual activity at 3.33 x 10^-6M (reference value: 99.81%). The note with it: dose 3.33 10^-6M.
Assay [6] deals with T3, Histone deacetylase 8 (Homo sapiens) (UniProt Q9BY41).
T3 sequence (whole entry): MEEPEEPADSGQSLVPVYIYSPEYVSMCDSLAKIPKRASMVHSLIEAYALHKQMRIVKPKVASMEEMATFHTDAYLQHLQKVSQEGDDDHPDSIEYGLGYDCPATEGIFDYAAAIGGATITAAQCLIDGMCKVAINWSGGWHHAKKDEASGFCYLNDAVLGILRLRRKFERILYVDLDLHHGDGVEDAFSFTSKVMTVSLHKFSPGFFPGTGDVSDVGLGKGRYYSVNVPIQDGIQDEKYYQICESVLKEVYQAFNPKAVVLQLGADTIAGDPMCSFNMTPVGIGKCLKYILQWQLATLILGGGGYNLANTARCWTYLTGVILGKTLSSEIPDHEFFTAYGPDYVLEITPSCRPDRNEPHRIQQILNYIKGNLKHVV
The assay can be described thus: Inhibition of HDAC8 (unknown origin) assessed as residual activity at 1.52 x 10^-9M (reference value: 100%). The note with it: dose 1.52 10^-9M.

Histone deacetylase 5 (Homo sapiens), sequence (Q9UQL6 whole entry): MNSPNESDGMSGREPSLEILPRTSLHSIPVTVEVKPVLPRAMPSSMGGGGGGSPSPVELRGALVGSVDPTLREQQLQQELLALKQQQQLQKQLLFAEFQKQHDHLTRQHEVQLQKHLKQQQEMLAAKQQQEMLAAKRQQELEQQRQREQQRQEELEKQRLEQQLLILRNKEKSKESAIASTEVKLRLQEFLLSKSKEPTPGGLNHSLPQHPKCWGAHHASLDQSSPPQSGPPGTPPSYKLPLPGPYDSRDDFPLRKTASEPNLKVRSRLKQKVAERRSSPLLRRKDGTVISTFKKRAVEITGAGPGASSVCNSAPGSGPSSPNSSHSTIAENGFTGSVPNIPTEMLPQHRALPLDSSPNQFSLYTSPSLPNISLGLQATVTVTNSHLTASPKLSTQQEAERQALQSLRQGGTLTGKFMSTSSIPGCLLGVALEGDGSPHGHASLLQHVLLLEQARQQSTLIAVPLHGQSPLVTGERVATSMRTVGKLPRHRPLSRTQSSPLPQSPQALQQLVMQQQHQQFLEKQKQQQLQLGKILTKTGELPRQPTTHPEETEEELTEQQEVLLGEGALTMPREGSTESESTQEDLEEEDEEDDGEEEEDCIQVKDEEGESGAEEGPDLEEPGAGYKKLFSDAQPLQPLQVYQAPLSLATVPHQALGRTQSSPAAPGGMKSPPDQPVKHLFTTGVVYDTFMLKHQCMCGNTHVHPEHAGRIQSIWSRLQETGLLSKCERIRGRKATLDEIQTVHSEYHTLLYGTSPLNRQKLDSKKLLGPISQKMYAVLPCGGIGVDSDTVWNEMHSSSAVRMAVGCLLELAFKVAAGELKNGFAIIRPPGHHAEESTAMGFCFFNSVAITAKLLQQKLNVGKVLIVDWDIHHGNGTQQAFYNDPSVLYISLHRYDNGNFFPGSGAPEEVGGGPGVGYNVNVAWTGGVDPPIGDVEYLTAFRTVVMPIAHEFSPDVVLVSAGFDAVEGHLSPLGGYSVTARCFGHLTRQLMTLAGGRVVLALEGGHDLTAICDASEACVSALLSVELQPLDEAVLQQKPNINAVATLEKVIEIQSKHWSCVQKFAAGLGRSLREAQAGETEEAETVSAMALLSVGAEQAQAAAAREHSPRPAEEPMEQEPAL
Histone deacetylase 2, sequence (Q92769 whole entry): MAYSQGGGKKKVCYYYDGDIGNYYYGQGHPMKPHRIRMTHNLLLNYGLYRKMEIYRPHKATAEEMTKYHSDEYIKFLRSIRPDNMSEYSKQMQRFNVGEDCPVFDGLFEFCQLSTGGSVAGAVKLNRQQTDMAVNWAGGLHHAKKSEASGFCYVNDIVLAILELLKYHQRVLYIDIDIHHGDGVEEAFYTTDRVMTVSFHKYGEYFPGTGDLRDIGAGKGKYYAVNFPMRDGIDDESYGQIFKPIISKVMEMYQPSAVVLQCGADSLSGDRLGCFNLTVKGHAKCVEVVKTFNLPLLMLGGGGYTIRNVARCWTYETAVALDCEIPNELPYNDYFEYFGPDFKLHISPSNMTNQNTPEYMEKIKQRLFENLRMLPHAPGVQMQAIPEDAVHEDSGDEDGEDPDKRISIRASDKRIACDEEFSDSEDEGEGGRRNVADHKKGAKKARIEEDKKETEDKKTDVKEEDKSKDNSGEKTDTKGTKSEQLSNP

As for `NC(=O)c1cccc2[nH]c(-c3ccc(NCc4ccc(C(=O)Nc5ccccc5N)cc4)cc3)nc12`, the Activity in assay [1] worked out at 103%; in assay [2], 91.9%; in assay [3] it was 80.1%; in assay [4] it was 111%; in assay [5] it was 97.7%; on Histone deacetylase 2, 5.75%. In addition, in assay [6], the Activity was 103%.

(Values after ChEMBL document CHEMBL5550160, “Leveraging a rationally designed veliparib-based anilide eliciting anti-leukemic effects for the design of pH-responsive polymer nanoformulation” (Eur J Med Chem, 2024).)
